In one test the test system is HIV-1 (NL4-3 strain). The experiment in a line: ViKinG (Viral Kinetics GFP Reporter) assay for inhibition of HIV replication. The test is classed as cell-based. To be noted: Human immunodeficiency virus 1, NL43; MT4-GFP cells infected with HIV-1 NL4-3; RPMI + 10% or 50% NHS (not given); infected cells at 48 h / 24 h. The text has this: The ViKinG (Viral Kinetics GFP Reporter) assay is an in vitro kinetic assay that employs the MT4-gag-GFP reporter cell line (Wang et al., “Assessment of the susceptibility of mutant HIV-1 to antiviral agents.” J Virological Methods 165:230-37 (2010)) to quantify the number of new cells infected in each round of replication. The purpose of the ViKinG assay is to identify agents that inhibit HIV progression. Briefly, HIV infection results in tat transactivation of the stably expressed HIV LTR promoter to drive gagGFP expression. Thus, an increase in the number of GFP-MT4 cells results following HIV infection.
MT4-GFP cells (250,000 cells/m1) were bulk-infected with HIV-1 (NL4-3 strain) at low multiplicity of infection (MOT) in RPMI+10% FBS for 24 hours. Cells were then washed once in RPMI+10% FBS and resuspended RPMI+10% or 50% normal human serum (NHS). Test compounds were serial-diluted in DMSO on an ECHO® liquid handling platform (Labcyte Corp., Sunnyvale, Calif.), along with a triple drug control (integrase, protease and NNRTI compounds). The infected MT4-GFP cells were added to a 384-well poly-D-lysine coated black plate with clear bottom in which the diluted test compounds were placed. The cells were seeded at 8,000 cells per well and the final DMSO concentration was 0.4%. The infected cells (Green GFP cells) were quantified at both 24 and 48 hours post incubation using Acumen® eX3 (TTP Labtech Ltd., Hertfordshire, United Kingdom). Viral reproductive ratio (R0) was determined using the number of infected cells at 48 hours divided by the number of infected cells at 24 hours. Percent viral growth inhibition was calculated by [1−(R−Rtripledrug)/(RDMSO−Rtripledrug)]*100. Compound potency IP or IC50 was determined by a 4-parameter dose response curve analysis.

The target in the next test is T1, WT-Integrase (Human immunodeficiency virus type 1 group M subtype B, UniProt P04585).
T1 construct: assembled PVT SPA beads with WT-Integrase and boitinylated DNA
The experiment in a line: InSTANT integrase DNA strand transfer functional assay. The format is biochemical, HIV. To be noted: SPA strand transfer, 15 minutes at 37° C. How it is done:
InSTANT is an integrase DNA strand transfer functional assay used to determine potency of InSTIs, which was carried out as described below. 8 μl of SPA buffer (27.8 mM Hepes, 27.8 mM MgCl2, 111.1 μg/mL BSA, 5.56 mM βME, and 57.1 mM NaCl) containing 5 nM 3H-labeled target DNA (prepared separately) and 10 μl of assembled PVT SPA beads with WT-Integrase and boitinylated DNA (prepared separately) were added to the assay plate which contained 0.4 μl of test compound(s) or positive or negative control compound(s) per well. The assay plate was shaken for 1 minute on HT-91002 1.0 MM shaker and then was sealed and incubated for 15 minutes at 37° C. The assay reaction was quenched by adding 4 μl of 1.25 M EDTA to each well of the assay plate with mixing. After incubating the plate at room temperature for 1 hour, the quenched plate was spun at 200 g for 1 minute and read on TopCount (1 minute per well). Percent inhibition was calculated by [1−(Sample−Min)/(Max−Min)]*100. Compound potency IP or IC50 was determined by a 4-parameter dose response curve analysis.

As a reminder, the IC50 is the midpoint of a concentration-inhibition curve.

In the case of `CC1CC12COCc1c2c(=O)c(O)c2n1CCN(Cc1ccc(F)c(Cl)c1)C2=O` (centres unmarked) [Compound 8, 8′-(3-chloro-4-fluorobenzyl)-6′-hydroxy-2-methyl-9′,10′-dihydro-1′H-spiro[cyclopropane-1,4′-pyrano[4′,3′:5,6]pyrido[1,2-a]pyrazine]-5′,7′(3′H,8′H)-dione], the 50% inhibitory concentration (IC50) was 507 nM in the test with HIV-1 (NL4-3 strain) and 28 nM against WT-Integrase.
In the case of `CC1=CCOCc2c1c(=O)c(O)c1n2CCN(Cc2ccc(F)c(Cl)c2)C1=O` [Compound 4, 9-(3-chloro-4-fluorobenzyl)-7-hydroxy-5-methyl-10,11-dihydro-1H-oxepino[4′,3′:5,6]pyrido[1,2-a]pyrazine-6,8(3H,9H)-dione], the IC50 is 91 nM in the test with HIV-1 (NL4-3 strain) and 18 nM against WT-Integrase.
On to `CCC1COCc2c1c(=O)c(O)c1n2CCN(Cc2ccc(F)c(Cl)c2)C1=O` (centres unmarked) [Compound 7], for which the 50% inhibitory concentration (IC50) in the test on HIV-1 (NL4-3 strain) is 461 nM; against WT-Integrase, 13 nM.
On to `CC(C)c1c(C(=O)N(C)C)n2c(c(O)c1=O)C(=O)N(Cc1ccc(F)cc1)CC2` [Compound 20, 2-(4-fluorobenzyl)-9-hydroxy-7-isopropyl-N,N-dimethyl-1,8-dioxo-2,3,4,8-tetrahydro-1H-pyrido[1,2-a]pyrazine-6-carboxamide], for which the concentration for half-maximal inhibition (IC50) with HIV-1 (NL4-3 strain) was 286 nM; against WT-Integrase, 20 nM.
Regarding `CC1COCc2c1c(=O)c(O)c1n2CCN(Cc2ccc(F)c(Cl)c2)C1=O` (centres unmarked) [Compound 25], the 50% inhibitory concentration (IC50) in the test on HIV-1 (NL4-3 strain) amounted to 351 nM; on WT-Integrase, 21 nM.
Taken in the same sequence, the figures for `CCC1COCc2c1c(=O)c(O)c1n2CCN(Cc2ccc(F)cc2)C1=O` (centres unmarked) [Compound 6] were 492 nM and 21 nM.
With `C=C1CN(C)C(=O)c2c1c(=O)c(O)c1n2CCN(Cc2ccc(F)c(Cl)c2)C1=O` [Compound 21, 8-(3-chloro-4-fluorobenzyl)-6-hydroxy-2-methyl-4-methylene-3,4,9,10-tetrahydro-1H-pyrazino[1,2-a][1,7]naphthyridine-1,5,7(2H,8H)-trione], the IC50 with HIV-1 (NL4-3 strain) is 155 nM; on WT-Integrase, 2 nM.

(Values after US9493479B2 (Merck Sharp & Dohme Corp., priority 2013, dated 2016).)
